# Test results reported in patent publication US8344008B2 (Janssen Pharmaceutica NV, priority 2007, dated 2013).
# pKi: −log10 of the molar value.
# Target: T1, recombinant human LTA4 hydrolase (rhLTA4H) (Homo sapiens, UniProt P09960)
# T1 construct: made in house; host or cells: Spodoptera frugiperda (Sf-9) cells, baculovirus (pFastBac1)
# T1 sequence (P09960 1-611): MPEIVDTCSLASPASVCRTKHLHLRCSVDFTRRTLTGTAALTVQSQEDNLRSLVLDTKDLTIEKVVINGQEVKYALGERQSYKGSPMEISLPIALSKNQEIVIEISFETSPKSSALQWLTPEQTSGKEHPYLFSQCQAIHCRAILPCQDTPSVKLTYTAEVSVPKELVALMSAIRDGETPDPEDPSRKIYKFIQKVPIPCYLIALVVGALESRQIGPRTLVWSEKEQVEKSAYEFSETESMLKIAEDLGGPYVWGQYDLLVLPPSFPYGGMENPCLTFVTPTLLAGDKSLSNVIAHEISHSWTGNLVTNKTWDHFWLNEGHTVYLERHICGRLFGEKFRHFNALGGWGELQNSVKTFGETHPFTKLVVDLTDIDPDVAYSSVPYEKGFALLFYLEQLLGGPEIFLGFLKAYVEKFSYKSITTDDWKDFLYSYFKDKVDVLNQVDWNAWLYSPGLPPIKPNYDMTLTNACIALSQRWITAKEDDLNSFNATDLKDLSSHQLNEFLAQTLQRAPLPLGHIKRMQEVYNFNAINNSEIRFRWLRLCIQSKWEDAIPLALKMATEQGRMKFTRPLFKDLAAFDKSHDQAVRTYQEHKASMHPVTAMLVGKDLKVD
# Test: Recombinant Human LTA4 Hydrolase Assay for LTA4 Hydrolase Inhibitor Activity
# Format: biochemical
# Details: average of results obtained; LTB4 quantified by enzyme-linked immunoassay
# How it was run: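 Baculovirus/Sf-9-expressed human LTA4 hydrolase (36 ng) preincubated with compound 10 min at rt in 0.1 M potassium phosphate pH 7.4, 5 mg/mL fatty-acid-free BSA. Reaction started with 9 ng LTA4 free acid, run 10 min at rt; LTB4 measured by enzyme immunoassay, IC50 from 4-parameter fit.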
row,pKi,SMILES
1,7.00,"O=C(CC(F)(F)F)N1CC2CN(Cc3ccc(Oc4nc5ccccc5s4)cc3)CC2C1 (stereo not shown) [Example 113, 1-{5-[4-(Benzothiazol-2-yloxy)-benzyl]-hexahydro-pyrrolo[3,4-c]pyrrol-2-yl}-3,3,3-trifluoro-propan-1-one]"
2,7.62,"NC(=O)N1CC2CCN(Cc3ccc(Oc4nc5ccccc5s4)cc3)C2C1 (stereo not shown) [Example 136, 1-[4-(Benzothiazol-2-yloxy)-benzyl]-hexahydro-pyrrolo[3,4-b]pyrrole-5-carboxylic acid amide]"
3,7.26,"CC(=O)N1CC2CCN(Cc3ccc(Oc4nc5ccccc5s4)cc3)C2C1 (stereo not shown) [Example 86, 1-{1-[4-(Benzothiazol-2-yloxy)-benzyl]-hexahydro-pyrrolo[3,4-b]pyrrol-5-yl}-ethanone]"
4,7.48,"CC(=O)N1[C@@H]2CC[C@H]1C[C@@H](NCCc1ccc(Oc3nc4ccc(Cl)cc4s3)cc1)C2 [Example 224, meso-endo-1-(3-{2-[4-(6-Chloro-benzothiazol-2-yloxy)-phenyl]-ethylamino}-8-aza-bicyclo[3.2.1]oct-8-yl)-ethanone]"
5,8.00,"O=C(C1CC1)N1CC2CN(Cc3ccc(Oc4nc5ccccc5s4)cc3)CC2C1 (stereo not shown) [Example 111, {5-[4-(Benzothiazol-2-yloxy)-benzyl]-hexahydro-pyrrolo[3,4-c]pyrrol-2-yl}-cyclopropyl-methanone]"
6,7.19,"CS(=O)(=O)N1C[C@H]2C[C@@H]1CN2CCOc1ccc(Oc2nc3ccccc3s2)cc1 [Example 223, (R,R)-2-{4-[2-(5-Methanesulfonyl-2,5-diaza-bicyclo[2.2.1]hept-2-yl)-ethoxy]-phenoxy}-benzothiazole]"
7,7.77,"O=S(=O)(C1CC1)N1CC2CN(Cc3ccc(Oc4nc5ccccc5s4)cc3)CC2C1 (stereo not shown) [Example 126, 2-[4-(5-Cyclopropanesulfonyl-hexahydro-pyrrolo[3,4-c]pyrrol-2-ylmethyl)-phenoxy]-benzothiazole]"
8,7.96,"CC(C)(O)C(=O)N1C[C@@H]2C[C@H]1CN2CCc1ccc(Oc2nc3ccccc3s2)cc1 [Example 17, (S,S)-1-(5-{2-[4-(Benzothiazol-2-yloxy)-phenyl]-ethyl}-2,5-diaza-bicyclo[2.2.1]hept-2-yl)-2-hydroxy-2-methyl-propan-1-one]"
9,6.94,"CS(=O)(=O)N[C@@H]1C[C@H]2CC[C@@H](C1)N2CCOc1ccc(Oc2nc3ccc(Cl)cc3s2)cc1 [Example 225, meso-exo-N-(8-{2-[4-(6-Chloro-benzothiazol-2-yloxy)-phenoxy]-ethyl}-8-aza-bicyclo[3.2.1]oct-3-yl)-methanesulfonamide]"
10,6.51,"CS(=O)(=O)N[C@@H]1C[C@H]2CC[C@@H](C1)N2CCOc1ccc(Oc2nc3cc(Cl)ccc3s2)cc1 [Example 265, meso-exo-N-(8-{2-[4-(5-Chloro-benzothiazol-2-yloxy)-phenoxy]-ethyl}-8-aza-bicyclo[3.2.1]oct-3-yl)-methanesulfonamide]"
11,7.14,"NS(=O)(=O)N1CC2CN(Cc3ccc(Oc4nc5ccccc5s4)cc3)CC2C1 (stereo not shown) [Example 119, 5-[4-(Benzothiazol-2-yloxy)-benzyl]-hexahydro-pyrrolo[3,4-c]pyrrole-2-sulfonic acid amide]"
12,7.06,"CC(C)(C)OC(=O)NCC(=O)N1C[C@H]2C[C@@H]1CN2Cc1ccc(Oc2nc3ccccc3s2)cc1 [Example 28, (R,R)-(2-{5-[4-(Benzothiazol-2-yloxy)-benzyl]-2,5-diaza-bicyclo[2.2.1]hept-2-yl}-2-oxo-ethyl)-carbamic acid tert-butyl ester]"
13,7.59,"NCC(=O)N1CC2CCN(Cc3ccc(Oc4nc5ccccc5s4)cc3)C2C1 (stereo not shown) [Example 96, 2-Amino-1-{1-[4-(benzothiazol-2-yloxy)-benzyl]-hexahydro-pyrrolo[3,4-b]pyrrol-5-yl}-ethanone]"
14,6.72,"CC(C)(C)OC(=O)NC1(C(=O)N2C[C@@H]3C[C@H]2CN3CCOc2ccc(Oc3nc4ccccc4s3)cc2)CC1 [Example 66, (S,S)-[1-(5-{2-[4-(Benzothiazol-2-yloxy)-phenoxy]-ethyl}-2,5-diaza-bicyclo[2.2.1]heptane-2-carbonyl)-cyclopropyl]-carbamic acid tert-butyl ester]"
15,7.37,"NC(=O)N1CC2CN(Cc3ccc(Oc4nc5c(F)cccc5s4)cc3F)CC2C1 (stereo not shown) [Example 161, 5-[2-Fluoro-4-(4-fluoro-benzothiazol-2-yloxy)-benzyl]-hexahydro-pyrrolo[3,4-c]pyrrole-2-carboxylic acid amide]"
16,7.12,"CC(=O)N[C@H]1C[C@H]2CC[C@@H](C1)N2CCOc1ccc(Cc2nc3ccccc3s2)cc1 [Example 152, N-{8-[2-(4-Benzothiazol-2-ylmethyl-phenoxy)-ethyl]-8-aza-bicyclo[3.2.1]oct-3-yl}-acetamide]"
17,7.52,"CS(=O)(=O)N1[C@@H]2CC[C@H]1C[C@H](NCCOc1ccc(Oc3nc4c(F)cccc4s3)cc1)C2 [Example 217, meso-exo-{2-[4-(4-Fluoro-benzothiazol-2-yloxy)-phenoxy]-ethyl}-(8-methanesulfonyl-8-aza-bicyclo[3.2.1]oct-3-yl)-amine]"
18,7.19,"Cc1ccc2nc(Oc3ccc(CN4[C@@H]5CC[C@H]4C[C@H](NS(C)(=O)=O)C5)cc3)sc2c1 [Example 200, meso-exo-N-{8-[4-(6-Methyl-benzothiazol-2-yloxy)-benzyl]-8-aza-bicyclo[3.2.1]oct-3-yl}-methanesulfonamide]"
19,7.01,"CC(=O)N[C@H]1C[C@H]2CC[C@@H](C1)N2Cc1ccc(Oc2nc3c(C)cccc3s2)cc1 [Example 72, meso-endo-N-{8-[4-(4-Methyl-benzothiazol-2-yloxy)-benzyl]-8-aza-bicyclo[3.2.1]oct-3-yl}-acetamide]"
20,6.94,"CC(=O)N[C@@H]1C[C@H]2CC[C@@H](C1)N2CCc1ccc(Oc2nc3cccc(F)c3s2)cc1 [Example 254, meso-exo-N-(8-{2-[4-(7-Fluoro-benzothiazol-2-yloxy)-phenyl]-ethyl}-8-aza-bicyclo[3.2.1]oct-3-yl)-acetamide]"
21,5.64,"O=S(=O)(c1cccs1)N1CC2CN(Cc3ccc(Oc4nc5ccccc5s4)cc3)CC2C1 (stereo not shown) [Example 124, 2-{4-[5-(Thiophene-2-sulfonyl)-hexahydro-pyrrolo[3,4-c]pyrrol-2-ylmethyl]-phenoxy}-benzothiazole]"
22,7.03,"CC(=O)N1C[C@H]2C[C@@H]1CN2CCOc1ccc(Oc2nc3ccc(Cl)cc3s2)cc1 [Example 177, (R,R)-1-(5-{2-[4-(6-Chloro-benzothiazol-2-yloxy)-phenoxy]-ethyl}-2,5-diaza-bicyclo[2.2.1]hept-2-yl)-ethanone]"
23,6.69,"O=S(=O)(c1cccnc1)N1CC2CN(Cc3ccc(Oc4nc5ccccc5s4)cc3)CC2C1 (stereo not shown) [Example 120, 2-{4-[5-(Pyridine-3-sulfonyl)-hexahydro-pyrrolo[3,4-c]pyrrol-2-ylmethyl]-phenoxy}-benzothiazole]"
24,8.52,"NC(=O)N1CC2CN(Cc3ccc(Oc4nc5ccccc5s4)cc3)CC2C1 (stereo not shown) [Example 139, 5-[4-(Benzothiazol-2-yloxy)-benzyl]-hexahydro-pyrrolo[3,4-c]pyrrole-2-carboxylic acid amide]"

row,SMILES,pKi
1,"O=C(CF)N1CC2CN(Cc3ccc(Oc4nc5ccccc5s4)cc3)CC2C1 (stereo not shown) [Example 112, 1-{5-[4-(Benzothiazol-2-yloxy)-benzyl]-hexahydro-pyrrolo[3,4-c]pyrrol-2-yl}-2-fluoro-ethanone]",8.70
